This note sets out measurements from patent US8716233B2, “NOTCH mutations leading to increased receptor signaling” (The Brigham and Women's Hospital, Inc., priority 2004, dated 2014).

The test system of one experiment is human T-ALL cell lines. Put plainly: Gamma-secretase inhibitor treatment of T-ALL cell lines, cell cycle analysis by flow cytometry. To be noted: compound E 1 μM, 4-8 days; thirty human T-ALL cell lines lacking t(7;9); compared with murine T6E reference line. The experiment is classed as cell-based. How it is done: FIG. 2A-2C. Identification of T-ALL cell lines that require NOTCH signals for growth. (2A) Effect of the γ-secretase inhibitor compound E (GSI, 1 μM) or vehicle alone (mock) on the cell cycle distribution of sensitive cell lines. Cells were treated for 4-8 days, fixed in cold 70% ethanol, stained with propidium iodide, and analyzed by flow cytometry. Live cells were gated by forward/side scatter criteria. (2B) Rescue of GSI-induced cell cycle arrest by MSCV-GFP-ICN1 retrovirus. (2C) Induction of cell cycle arrest by dominant negative MSCV-GFP-Mastermind-like-1 retrovirus. In (2B) and (2C), control cultures were transduced with control empty MSCV-GFP retrovirus or the indicated test virus. Two days post-transduction, cultures were split in two and treated with either compound E (GSI) or DMSO vehicle (mock) for 7-10 days. Cultures were then harvested and stained with the DNA dye DRAQ5, which permits flow cytometric measurement of DNA content in unsorted GFP− and GFP+ subpopulations. A minimum of 15,000 events was collected to create each DNA content histogram. […]
DNA content was ascertained by flow cytometry and cell cycle factors determined using multicycle software (Phoenix Flow Systems, San Diego).
A general note: Flow cytometry measures light scatter and fluorescence of single cells or particles in a stream.

In a further experiment the test system is NOTCH-1. Put plainly: NOTCH-sensitive luciferase reporter gene assay in transiently transfected U2OS cells. It is filed as cell-based, human. How it is done: FIG. 4A-4B. HD and PEST domain mutations activate NOTCH-1 signaling synergistically. (4A) Reporter gene assays. U2OS cells were transiently co-transfected in 24-well format with the indicated pcDNA3 plasmids, a NOTCH-responsive luciferase reporter gene, and an internal Renilla luciferase internal control plasmid, as described previously (Aster, et al., Mol. Cell. Biol. 20:7505-15). Twenty-five ng of pcDNA3 plasmid was used per well, except for experiments with pcDNA3-ICN1, in which 5 ng of plasmid per well were used. Normalized luciferase activities in whole cell lysates were determined in triplicate and expressed relative to the activity in lysates prepared from cells transfected with the empty vector control. (4B) Model for synergistic NOTCH-1 activation by dual mutations involving both the HD and PEST domains.
NOTCH-1 expression plasmids (pcDNA3) were transiently transfected with U2OS cells with (i) an artificial luciferase reporter gene under the control of a promoter containing CSL binding sites and (ii) an internal Renilla luciferase control gene, as described previously (Aster, et al., Mol. Cell. Biol. 20:7505-7515 (2000)), using Lipofectamine Plus (Invitrogen). Total DNA was kept constant by adding empty vector as needed. All transfections were carried out in triplicate, and each experiment was repeated at least three times.
For orientation: In a reporter assay the amount or activity of a reporter protein is the signal.

With `C[C@H](NC(=O)Cc1cc(F)cc(F)c1)C(=O)N[C@H]1N=C(c2ccccc2)c2ccccc2N(C)C1=O` [γ-secretase inhibitor, compound E], in the experiment with human T-ALL cell lines, the “cell cycle distribution (G0/G1 cell cycle arrest) of T-ALL cell lines” value is “five of thirty human T-ALL cell lines tested showed a G0/G1 cell cycle arrest”. Also, in the experiment on NOTCH-1 (HD and/or PEST domain mutated NOTCH-1 plasmids), the “stimulatory effects of mutated transmembrane NOTCH-1 polypeptides on luciferase reporter activity” value was “completely abrogated”. For the same compound, the “stimulation of luciferase reporter activity produced by ICN1” value with NOTCH-1 (pcDNA3-ICN1 (constitutively nuclear)) is listed as “unaffected”.
